Measured values as given in patent US20120237614A1, “PEPTIDE ABLE TO DISRUPT THE PROTEIN COMPLEX BETWEEN THE HIS273 MUTADED P53 PROTEIN AND THE ONCOSUPPRESSIVE P73 PROTEIN IN TUMOR CELLS AND THERAPEUTIC USES THEREOF” (priority 2009, published 2012).
“Also recorded” adds a separate entry of the source.

Key:
[1] = system: HT29 (His-273) colon carcinoma cells; experiment: Transactivation test (pLUC-BAX) in Adriamycin treated HT29 cells; type: cell-based, human; conditions: 3 μM Adriamycin
Experimental: (§1) (A) In order to verify the SIMPI peptide specificity, independently from the cellular context, we tested SIMP1 peptides in some Adriamicyn treated colon carcinoma HT29 (His-273). cell lines. The cells have been transfected using a mixture containing lipofectamine, pLUC-BAX plasmid, β-galactosidase expression vector, SIMP1 and SIMP5M control peptides. 24 hours post-transfection, have been treated with 3 μM Adriamicyn. (B-C). Viability and inhibition assays have been carried out after transfection using SIMP1 and SIMP5M peptides in HT29 (colon cancer) and MDA-MB-468 (breast cancer) cell lines
SKBR3, HT-29, MDA-MB-468 cell lines have been transfected with Lipofectamine 2000 according to the supplier instructions (InVitrogen).
Cells (1.5×10^5) have been transiently transfected using SIMP peptides, expression plasmids and reporter constructs as internal controls for transfection efficiency. After the transfection, SKBR3, HT-29 and MDA-MB-468 have been incubated with 3 μM ADR over 24 hours. Cells have been washed with cold PBS and re-suspended in lysis buffer (Promega) and incubated for 10 min at room temp. Insoluble material has been centrifuged and luciferase activity has been determined using a commercial kit with a luminometer (Turner).

HT29 cells = experiment: In vivo tumorigenicity test (xenograft of peptide transfected HT29 cells); conditions: naked mice, s.c. 5×10^5 peptide transfected cells/mouse, 5 weeks
Experimental: In order to assay SIMP1 in vivo antitumor activity nu/nu […] mice were administered subcutaneously with SIMP1, SIMP1KO and SIMP5M transfected HT29 cells (5.0×10^5 cells/mouse). Tumour growth has been monitored over 5 weeks.
Xenograft assays have been carried out by administration to naked mice subcutaneous injections containing 5×10^5 cells/mouse of SIMP1, SIMP1KO and SIMP5M peptide transfected colon and rectum tumour human cell line (nu/nu CD1 Charles River mice). The tumour growth together with animal body weight is monitored for 5 weeks in order to estimate the chronic toxicity
The experiments have been carried out by administration to naked mouse (nu/nu CD1 Charles River mice) subcutaneous injections containing 5×10^5 cells/mouse. The tumour growth has been monitored together with animal body weight for 5 weeks in order to estimate possible not occurred chronic toxic effects (FIG. 5).

m-p53His-273/p73 complex = target: T1, m-p53His-273/p73 complex (Homo sapiens, UniProt P04637, R273H); experiment: Coprecipitation (immunoprecipitation) test of the m-p53/p73 complex in MDA-MB-468 cells; type: cell-based; conditions: His-273 mutation, peptide 20 μM, anti-p73 immunoprecipitation
T1 construct: Total cellular lysates (1 mg), have been immunoprecipitated with antibodies directed against p73; endogenous in cells; host or cells: MDA-MB-468
Experimental: (A) MDA-MB-468 (5×10^5) cells have been transfected using a lipofectamine containing mixture, βgal expression vector, which normalizes transfection efficiency, and SIMPI peptide (20 μM). Total cellular lysates (1 mg), have been immunoprecipitated with antibodies directed against p73 and immunoglobulins (IgG). Immunoprecipitates and an aliquot (50 μg) of total lysate after 12% acrylamide gel electrophoretic run have been transferred on nitrocellulose membrane and labelled with antibodies shown in the figure. (B) MDA-MB-468 cells, have been transfected using SIMP1 and SIMP5,6. peptides. Successively, cells have been washed and stimulated with 3 μM Adriamycin. Total obtained lysates (30 μg) have been assayed for the expression of PARP and BAX apoptotic proteins. Lysate has been normalized by assaying γ-tubulin expression. (C-D). Transactivation tests have been carried out by transient transfection of H1299 cells using a mixture containing lipofectamine, SIMP1, SIMP5,6 indicated plasmids (20 μM each) together with pLUC-BAX reporter vector. To each reaction mixture an equal amount of […] expression vector was added, in order to normalize the transfection efficiency.
The cell extracts have been processed in a lysis buffer containing 50 mm Tris HCl pH 8, 100 mM NaCl, 10% glycerol, 1% Triton X-100, 1 mM EDTA, 100 mM NaF, MgCl2, 1 mM PMSF, protease and phosphatase inhibitors. Then extracts have been sonicated and centrifuged at 14.000 rpm for 10 min for the debris removal.
50 μg of solubilised proteins have been separated by electrophoresis on 10 or 15% SDS-polyacrylamide gel. Western blot analysis has been carried out using anti-p53 primary antibodies (DO1 Calbiochem), rabbit anti-PARP, rabbit polyclonal anti-Bax, anti-p21 and anti-tubulin monoclonal antibodies (Calbiochem). […] Immunolabelled lanes have been detected using chemiluminescence analysis (Pierce). […]
In order to evaluate the activity of SIMPI peptide and SIMP1KO and SIMP1M derivatives the ability in disrupting the oncogenic m-p53His-273/p73 complex has been analysed.

[2] = system: MDA-MB468 breast and HT29 colon carcinoma cell lines; experiment: Cell viability / proliferation assays after peptide transfection; type: cell-based, human; conditions: peptide transfected cells
Experimental: as §1
Cell viability has been tested using Trypan Blue exclusion assays.
We observed a reduction of cell proliferation in MDA-MB468 breast and HT29 colon carcinoma cell lines.

mutp53 His-273 protein = target: T2, mutp53 His-273 protein (Homo sapiens, UniProt P04637, R273H); experiment: Dot immunobinding test with total cell extracts; type: binding; conditions: total extracts 1 mg, peptide on nitrocellulose membrane
T2 construct: Total extracts deriving from SKBR3, (His-175) HT29, (His-273) and H1299 (p53 free) tumour cells; endogenous in cells; host or cells: HT29 total cell extract
Experimental: (A) Total extracts deriving from SKBR3, (His-175) HT29, (His-273) and H1299 (p53 free) tumour cells have been incubated (1 mg) on SIMP1 and SIMPIKO peptide labelled nitrocellulose membrane and Dot Blot analysed. In (B) the membranes have been incubated with 20 μg of wild type WT GST-p53 purified protein or GST-p53 His-175, GST-p53-His-175, 74-298 or GST alone. In both experiments dots have been detected by labelling the membranes with anti-p53 (DO1) antibody
Nitrocellulose membranes have been cut, washed with water and blotted on the paper filters. The peptides at 250 mM concentration have been transferred on membrane. Labelled membrane has been washed for 10 min. with TBST buffer (10 mM Tris-HCl pH 7.4, 150 mM NaCl, 0.05% (v/v) Tween-20) and then blocked for 45 min with TBST/5% milk. Then the membranes have been incubated for 6 hours at 4° C. in shaker with 1 mg of total protein extract or 20 μg of GST fusion purified proteins. Successively the membranes have been washed with TBST buffer and decorated with anti-p53 antibody (DO1) as a primary antibody. As secondary antibody horse peroxidase conjugated goat antibody has been used. Immunolabelled lanes have been detected using chemiluminescence analysis (Pierce).
The membranes decorated with SIMP peptides also have been incubated with GST-p53 His175, GST p53His74-298, GST WTp53 fusion proteins, GST control.

FQQSSTAKSATW (p73 SIMP (aa 131-142)) [SIMP1]
sensitivity to Adriamycin [1]: made the same more sensitive to the treatment with Adriamycin | tumour growth (tumour size) in vivo (HT29 cells): tumour growth is decreased; also recorded: meaningful reduction of the growth (tumour size) | disruption of m-p53 His-273/p73 protein complex (p73 bound m-p53 amount) (m-p53His-273/p73 complex): suitable to disrupt m-p53/p73 complexes in tumour cells containing his-273 mutation; also recorded: disrupt selectively m-p53/p73 complex | disruption of m-p53 His-273/p73 protein complex (p73 bound m-p53 amount) (m-p53His-273/p73 complex; listed as SIMPI): disrupts mutated p53/p73 protein complex; also recorded: largely reduced | cell proliferation in vitro [2]: reduce the cell proliferation in vitro | direct binding to mutp53 His-273 (dot blot, anti-p53 DO1) (mutp53 His-273 protein): binds directly the mutp53 His-273 protein
